What all share (format): physicochemical
Series [1] is described as follows: Retention of solid form under high humidity conditions. The conditions noted are these: about ≥95% relative humidity (RH) overnight (about 18-20 h), dried material. Here is the method: (§1) About 120 mg of dasatinib is dispensed in about 1 mL of ethyl formate and stirred at temperatures of about 15° C. or about 45° C. for about 24 h. The slurries that are obtained at either of two temperatures are filtered, to yield Form I of ethyl formate solvate of dasatinib.

The nature of series [2]: Retention of solid form after drying under vacuum. The conditions noted are these: dried under vacuum at about 45° C. overnight (about 18-20 h). Here is the method: as §1
A short description of series [3]: Moisture uptake on exposure to 0-95% RH. The settings on record: exposed to 0-95% RH.
Series [4] is described as follows: Storage stability at controlled temperature/relative humidity.

Each structure is given as a SMILES string.

With `Cc1nc(Nc2ncc(C(=O)Nc3c(C)cccc3Cl)s2)cc(N2CCN(CCO)CC2)n1` [dasatinib], the “solid form after exposure to high humidity” value in series [1] is recorded as “retains its form”. For the same compound, the “solid form after drying under vacuum” value in series [2] is listed as “retains its form”. Besides, the moisture uptake in series [3] is listed as below 1%. In addition, the stability on storage result in series [4] (25° C./97% RH) and in series [4] (40° C./75% RH) was “stable up to 5 months” each time.
